Test results: US9284321B2, “Piperazino[1,2-a]indol-1-ones and [1,4]diazepino[1,2-a]indol-1-one” (Hoffmann-La Roche Inc., priority 2012, dated 2016)

Key:
[1] = system: human embryonic stem cell derived neural stem cells (NSCs); experiment: Neural Stem Cell Proliferation Assay (neurogenesis assay, ATP levels by CellTiterGlo); format: cell-based; settings: 96 h, compound concentration at which 150% activity of control (100%) is reached, NSC proliferation by ATP level after 4 days incubation, dose response 8 μM to 8 nM
Procedure, shortened: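 Human ESC-derived NSCs (dual SMAD inhibition) seeded 4 h before compounds, 11-point 2-fold series 8 μM–8 nM; 4 days at 37 °C, 5% CO2. ATP by CellTiterGlo luminescence as cell-number proxy, response as % of media control (0.25% DMSO); EC150 = concentration giving 150% of control.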

SMILES: Cc1c2n(c3c(-c4ccnc(Cl)c4)cc(Cl)cc13)CCNC2=O [Example 119, 8-Chloro-6-(2-chloro-pyridin-4-yl)-10-methyl-3,4-dihydro-2H-pyrazino[1,2-a]indol-1-one]
- EC (150% of control) [1]: 0.16 µM
- melting point: 270 °C

SMILES: Cc1c2n(c3c(-c4ccc(Cl)cc4Cl)cc(F)cc13)CCNC2=O [Example 120, 6-(2,4-Dichloro-phenyl)-8-fluoro-10-methyl-3,4-dihydro-2H-pyrazino[1,2-a]indol-1-one]
- EC (150% of control) [1]: 0.01 µM
- melting point: 214 °C

SMILES: Cc1c2n(c3c(-c4ccc(Cl)cc4F)cc(F)cc13)CCNC2=O [Example 121, 6-(4-Chloro-2-fluoro-phenyl)-8-fluoro-10-methyl-3,4-dihydro-2H-pyrazino[1,2-a]indol-1-one]
- EC (150% of control) [1]: 0.01 µM
- melting point: 221 °C

SMILES: Cc1c2n(c3c(-c4ccc(F)cc4F)cc(F)cc13)CCNC2=O [Example 122, 6-(2,4-Difluoro-phenyl)-8-fluoro-10-methyl-3,4-dihydro-2H-pyrazino[1,2-a]indol-1-one]
- EC (150% of control) [1]: 0.013 µM
- melting point: 204 °C

SMILES: Cc1c2n(c3c(-c4ccc5c(c4)OCO5)cc(F)cc13)CCNC2=O [Example 123, 6-Benzo[1,3]dioxol-5-yl-8-fluoro-10-methyl-3,4-dihydro-2H-pyrazino[1,2-a]indol-1-one]
- EC (150% of control) [1]: 0.031 µM
- melting point: 206 °C

SMILES: Cc1c2n(c3c(-c4ccc(C#N)cc4)cc(F)cc13)CCNC2=O [Example 124, 4-(8-Fluoro-10-methyl-1-oxo-1,2,3,4-tetrahydro-pyrazino[1,2-a]indol-6-yl)-benzonitrile]
- EC (150% of control) [1]: 0.023 µM
- melting point: 295 °C

SMILES: Cc1c2n(c3c(-c4ccc(S(C)(=O)=O)cc4)cc(F)cc13)CCNC2=O [Example 125, 8-Fluoro-6-(4-methanesulfonyl-phenyl)-10-methyl-3,4-dihydro-2H-1-pyrazino[1,2-a]indol-1-one]
- EC (150% of control) [1]: 0.015 µM
- melting point: 292 °C

SMILES: Cc1c2n(c3c(-c4ccc([N+](=O)[O-])cc4)cc(F)cc13)CCNC2=O [Example 126, 8-Fluoro-10-methyl-6-(4-nitro-phenyl)-3,4-dihydro-2H-pyrazino[1,2-a]indol-1-one]
- EC (150% of control) [1]: 0.01 µM
- melting point: 309 °C

SMILES: Cc1c2n(c3c(-c4ccc(C(C)C)cc4)cc(F)cc13)CCNC2=O [Example 127, 8-Fluoro-6-(4-isopropyl-phenyl)-10-methyl-3,4-dihydro-2H-pyrazino[1,2-a]indol-1-one]
- EC (150% of control) [1]: 0.025 µM
- melting point: 177 °C

SMILES: Cc1c2n(c3c(-c4cccc(Cl)c4)cc(F)cc13)CCNC2=O [Example 128, 6-(3-Chloro-phenyl)-8-fluoro-10-methyl-3,4-dihydro-2H-pyrazino[1,2-a]indol-1-one]
- EC (150% of control) [1]: 0.22 µM
- melting point: 182 °C

SMILES: Cc1c2n(c3c(-c4ccc5c(c4)CCO5)cc(F)cc13)CCNC2=O [Example 129, 6-(2,3-Dihydro-benzofuran-5-yl)-8-fluoro-10-methyl-3,4-dihydro-2H-pyrazino[1,2-a]indol-1-one]
- EC (150% of control) [1]: 0.022 µM
- melting point: 251 °C

SMILES: Cc1c2n(c3c(-c4ccc(CO)cc4)cc(F)cc13)CCNC2=O [Example 130, 8-Fluoro-6-(4-hydroxymethyl-phenyl)-10-methyl-3,4-dihydro-2H-pyrazino[1,2-a]indol-1-one]
- EC (150% of control) [1]: 0.011 µM
- melting point: 220 °C

SMILES: Cc1c2n(c3c(-c4cccc(C#N)c4)cc(F)cc13)CCNC2=O [Example 131, 3-(8-Fluoro-10-methyl-1-oxo-1,2,3,4-tetrahydro-pyrazino[1,2-a]indol-6-yl)-benzonitrile]
- EC (150% of control) [1]: 0.33 µM
- melting point: 192 °C

SMILES: Cc1c2n(c3c(-c4ccc(C(C)(C)C)cc4)cc(F)cc13)CCNC2=O [Example 132, 6-(4-tert-Butyl-phenyl)-8-fluoro-10-methyl-3,4-dihydro-2H-pyrazino[1,2-a]indol-1-one]
- EC (150% of control) [1]: 0.046 µM
- melting point: 216 °C

SMILES: Cc1c2n(c3c(-c4ccc(OC(F)(F)F)cc4)cc(Cl)cc13)CCNC2=O [Example 133, 8-Chloro-10-methyl-6-(4-trifluoromethoxy-phenyl)-3,4-dihydro-2H-pyrazino[1,2-a]indol-1-one]
- EC (150% of control) [1]: 0.004 µM
- melting point: 212 °C

SMILES: Cc1cc(-c2cc(Cl)cc3c(C)c4n(c23)CCNC4=O)ccc1F [Example 134, 8-Chloro-6-(4-fluoro-3-methyl-phenyl)-10-methyl-3,4-dihydro-2H-pyrazino[1,2-a]indol-1-one]
- EC (150% of control) [1]: 0.083 µM
- melting point: 235.5 °C

SMILES: Cc1c2n(c3c(-c4ccc(Cl)c(C(F)(F)F)c4)cc(Cl)cc13)CCNC2=O [Example 135, 8-Chloro-6-(4-chloro-3-trifluoromethyl-phenyl)-10-methyl-3,4-dihydro-2H-pyrazino[1,2-a]indol-1-one]
- EC (150% of control) [1]: 0.036 µM
- melting point: 268 °C

SMILES: Cc1c2n(c3c(-c4cc(F)c(F)c(F)c4)cc(Cl)cc13)CCNC2=O [Example 136, 8-Chloro-10-methyl-6-(3,4,5-trifluoro-phenyl)-3,4-dihydro-2H-pyrazino[1,2-a]indol-1-one]
- EC (150% of control) [1]: 0.021 µM
- melting point: 253 °C

SMILES: Cc1c2n(c3c(-c4cccnc4)cc(Cl)cc13)CCNC2=O [Example 137, 8-Chloro-10-methyl-6-pyridin-3-yl-3,4-dihydro-2H-pyrazino[1,2-a]indol-1-one]
- EC (150% of control) [1]: 0.088 µM
- melting point: 252.5 °C

SMILES: Cc1c2n(c3c(-c4cncnc4)cc(Cl)cc13)CCNC2=O [Example 138, 8-Chloro-10-methyl-6-pyrimidin-5-yl-3,4-dihydro-2H-pyrazino[1,2-a]indol-1-one]
- EC (150% of control) [1]: 0.21 µM
- melting point: 306 °C

SMILES: Cc1c2n(c3c(-c4ccnc(F)c4)cc(F)cc13)CCNC2=O [Example 139, 8-Fluoro-6-(2-fluoro-pyridin-4-yl)-10-methyl-3,4-dihydro-2H-pyrazino[1,2-a]indol-1-one]
- EC (150% of control) [1]: 0.027 µM
- melting point: 240 °C

SMILES: Cc1c2n(c3c(-c4ccnc(Cl)c4)cc(F)cc13)CCNC2=O [Example 140, 6-(2-Chloro-pyridin-4-yl)-8-fluoro-10-methyl-3,4-dihydro-2H-pyrazino[1,2-a]indol-1-one]
- EC (150% of control) [1]: 0.12 µM
- melting point: 254 °C

SMILES: Cc1c2n(c3c(-c4ccc(F)nc4)cc(F)cc13)CCNC2=O [Example 141, 8-Fluoro-6-(6-fluoro-pyridin-3-yl)-10-methyl-3,4-dihydro-2H-pyrazino[1,2-a]indol-1-one]
- EC (150% of control) [1]: 0.13 µM
- melting point: 247 °C

SMILES: COc1ncc(-c2cc(Cl)cc3c(C)c4n(c23)CCNC4=O)cn1 [Example 142, 8-Chloro-6-(2-methoxy-pyrimidin-5-yl)-10-methyl-3,4-dihydro-2H-pyrazino[1,2-a]indol-1-one]
- EC (150% of control) [1]: 0.039 µM
- melting point: 270.5 °C

SMILES: Cc1c2n(c3c(-c4cnc(N)nc4)cc(Cl)cc13)CCNC2=O [Example 143, 6-(2-Amino-pyrimidin-5-yl)-8-chloro-10-methyl-3,4-dihydro-2H-pyrazino[1,2-a]indol-1-one]
- EC (150% of control) [1]: 0.32 µM
- melting point: 316 °C

SMILES: Cc1c2n(c3c(-c4ccc(N(C)C)cc4)cc(F)cc13)CCNC2=O [Example 145, 6-(4-Dimethylamino-phenyl)-8-fluoro-10-methyl-3,4-dihydro-2H-pyrazino[1,2-a]indol-1-one]
- EC (150% of control) [1]: 0.017 µM
- melting point: 256 °C

SMILES: COc1ccc(-c2cc(F)cc3c(C)c4n(c23)CCNC4=O)cn1 [Example 146, 8-Fluoro-6-(6-methoxy-pyridin-3-yl)-10-methyl-3,4-dihydro-2H-pyrazino[1,2-a]indol-1-one]
- EC (150% of control) [1]: 0.02 µM
- melting point: 226 °C

SMILES: Cc1ccc(-c2cc(F)cc3c(C)c4n(c23)CCNC4=O)cc1F [Example 147, 8-Fluoro-6-(3-fluoro-4-methyl-phenyl)-10-methyl-3,4-dihydro-2H-pyrazino[1,2-a]indol-1-one]
- EC (150% of control) [1]: 0.039 µM
- melting point: 206 °C

SMILES: Cc1cc(-c2cc(F)cc3c(C)c4n(c23)CCNC4=O)ccc1F [Example 148, 8-Fluoro-6-(4-fluoro-3-methyl-phenyl)-10-methyl-3,4-dihydro-2H-pyrazino[1,2-a]indol-1-one]
- EC (150% of control) [1]: 0.078 µM
- melting point: 236 °C

SMILES: Cc1c2n(c3c(-c4ccc(OC(F)(F)F)cc4)cc(F)cc13)CCNC2=O [Example 149, 8-Fluoro-10-methyl-6-(4-trifluoromethoxy-phenyl)-3,4-dihydro-2H-pyrazino[1,2-a]indol-1-one]
- EC (150% of control) [1]: 0.016 µM
- melting point: 162 °C

SMILES: Cc1c2n(c3c(-c4ccc(Cl)c(C(F)(F)F)c4)cc(F)cc13)CCNC2=O [Example 150, 6-(4-Chloro-3-trifluoromethyl-phenyl)-8-fluoro-10-methyl-3,4-dihydro-2H-pyrazino[1,2-a]indol-1-one]
- EC (150% of control) [1]: 0.61 µM
- melting point: 240 °C

SMILES: Cc1c2n(c3c(-c4ccc(F)c(F)c4F)cc(F)cc13)CCNC2=O [Example 151, 8-Fluoro-10-methyl-6-(2,3,4-trifluoro-phenyl)-3,4-dihydro-2H-pyrazino[1,2-a]indol-1-one]
- EC (150% of control) [1]: 0.035 µM
- melting point: 130 °C

SMILES: Cc1c2n(c3c(-c4cccnc4)cc(F)cc13)CCNC2=O [Example 152, 8-Fluoro-10-methyl-6-pyridin-3-yl-3,4-dihydro-2H-pyrazino[1,2-a]indol-1-one]
- EC (150% of control) [1]: 0.13 µM
- melting point: 239 °C

SMILES: Cc1c2n(c3c(-c4ccc(F)c(F)c4F)cc(Cl)cc13)CCNC2=O [Example 153, 8-Chloro-10-methyl-6-(2,3,4-trifluoro-phenyl)-3,4-dihydro-2H-pyrazino[1,2-a]indol-1-one]
- EC (150% of control) [1]: 0.029 µM
- melting point: 205.5 °C
